According to US11267791B2 (F.I.S.—FABBRICA ITALIANA SINTETICI S.P.A., priority 2018, dated 2022):
Where a name gives a salt, the structure may show the parent alone.

Legend:
[1] = Preliminary stability in water at RT, slurry analysed by XRPD; type: physicochemical; settings: XRPD at 1, 3, 6 and 24 h
Description: A preliminary test stability study in water at RT of 4 ETP monoethanolamine salt Forms was performed in order to observed possible crystalline transitions. A sample of each crystalline form was slurried in water at RT and periodically analysed by XRPD (1, 3, 6 and 24 h) in order to detect possible crystalline transformation.

[2] = Hygroscopicity study by DVS (Dynamic Vapour Sorption); type: physicochemical; settings: 25° C.; for humidity adsorbed (water uptake) / hygroscopicity (water uptake): at 95% RH
Description: Hygroscopicity study was determined by DVS (Dynamic Vapour Sorption) with a Q5000 TA instrument. This is a gravimetric technique that measures how much water is absorbed or desorbed by a sample at different relative humidity (RH). At each RH, the sample mass must be allowed to reach gravimetric equilibrium (or surpassed time limit) before progressing to the next humidity level. Sorption and desorption isotherms were performed at 25° C. over a range of 0-95% RH. The samples gently milled were not previously dried but they were exposed to 0% RH until a stable weight was reached before starting the DVS cycle. This equilibration step allows possible adsorbed humidity to be eliminated.

[3] = Stability study of Form E, atmospheric and ICH accelerated conditions, XRPD; type: physicochemical; settings: after 1 day of exposition
Description: In the first ETP monoethanolamine salt Form E was exposed to atmospheric conditions for 1 day was unstable, and a new form very similar to Form II (ETP bisethanolamine salt) described in U.S. Pat. No. 8,372,822B2 was recovered according to XRPD analysis. In the second ETP monoethanolamine salt Form E was exposed to ICH guideline accelerated conditions (40° C./75 RH %). Under these conditions, Form E converted partially to a new unknown form.

[4] = Relative thermodynamic solubility in water at RT by HPLC; type: physicochemical
Description: The relative solubility of the above mentioned 4 ETP monoethanolamine salt Forms was studied in water at RT. The validity of any solubility measurement requires that the crystalline form must remain stable with respect to any phase conversion taking place during the determination of the equilibrium solubility.
This suspension was stirred 24 h at RT in order to reach the equilibrium. Then, a sample was filtered and the resulting filtrate was analysed by HPLC by duplicate. The average peak area of ETP gave a relative value of the thermodynamic solubility of each form that can be compared with each other. The solids recovered after filtration were also analysed by XRPD to check that no crystalline phase transformation occurred during the slurring.
HPLC ETP peak area in each of the different forms analysed was measured in order to establish their relative solubility. The HPLC analyses were performed by duplicate for each ETP monoethanolamine salt.

[5] = Crystalline stability of Form D1 under accelerated ICH guideline conditions, XRPD; type: physicochemical
Description: This sample was periodically analysed by XRPD in order to observe possible crystalline transformation or amorphization. Moreover, a sample of ETP monoethanolamine salt Form D1 stored on a XRPD silicon holder was exposed in a climatic chamber. It is worth noting that these stability conditions are harsher than standard stability conditions due to the high surface of exposition of the solid stored on the XRPD silicon holder. The samples were periodically analysed by XRPD to observe possible crystalline transformation.

[6] = cited from earlier work

With “Eltrombopag monoethanolamine salt [Form H]” the “crystalline stability slurried in water” value [1] was “remained stable”, the “humidity adsorbed (water uptake)” value [2] was “up to 1.4 % w/w” and the “hygroscopicity (water uptake)” value [2] was 1.4 w/w.
In the case of “Eltrombopag monoethanolamine salt [Form E]”, the “result of stability study, crystalline form by XRPD” value ([3]; 40° C./75 RH %, ICH accelerated) was “partial conversion to a new form with a main peak at 8.6° (2θ)” and the “result of stability study, crystalline form by XRPD” value ([3]; atmospheric conditions) was “Form II+one peak at 8.6° (2θ)”.
In the case of `CC1=NN(c2ccc(C)c(C)c2)C(=O)/C1=N\Nc1cccc(-c2cccc(C(=O)O)c2)c1O` [Form D1, Eltrombopag monoethanolamine salt], the Intensity test average ([4]; average of solubility tests #1 and #2, HPLC ETP peak area) was 2911, the “Solubility test #1 (area counts)” value ([4]; saturated water solution, 24 h at RT, HPLC ETP peak area) was 2722 area counts and the “Solubility test #2 (area counts)” value ([4]; saturated water solution, 24 h at RT, HPLC ETP peak area, repeat) was 3100 area counts. The “crystalline stability slurried in water” value [1] was “remained stable”, the “crystalline stability in words” value ([5]; 2 months study period) was “remained stable” and the “period the crystalline form remains stable” value ([5]; T=40° C./75±5% RH (chamber 45±2° C.-75±5% RH)) was “at least 2 months”. For the same molecule, the “humidity adsorbed (water uptake)” value [2] was “less than 0.2 % w/w”.
With “Eltrombopag monoethanolamine salt [Form H2]” the “hygroscopicity (water uptake)” value ([2]; listed as ETP monoethanolamine salt Form H2) was 0.6 w/w.
With “Eltrombopag monoethanolamine salt [Form D]” the hygroscopicity in words ([2]; up to 85% RH, listed as ETP monoethanolamine salt Form D) was “not hygroscopic”.
For `CC1=NN(c2ccc(C)c(C)c2)C(=O)/C1=N\Nc1cccc(-c2cccc(C(=O)O)c2)c1O` [Eltrombopag olamine, Eltrombopag bisethanolamine salt], the “thermally stable up to” value ([6]; at higher temperature endothermic reaction associated with degradation) is given as “about 125 °C” and the solubility in water [6] is given as “sparingly soluble”.
